# Entries after “also recorded” stand apart in the source; their conditions may differ.
# Assays:
# H. pylori = assay: therapeutic treatment in chronic H. pylori mouse infection model (cfu counts, cagL PCR); assay type: in vivo, C57B/L6 mice; settings: for reduction of colony-forming units (cfus) / bacterial loads in stomach: metronidazole 14.3 mg/kg/day, intragastric gavage
# Experimental: 6-8 weeks old specific pathogen-free C57B/L6 mice were obtained from Charles River Laboratories. They were acclimatized to the new surroundings for one week before starting the assays. For the whole duration of the experiment, mice had access to sterile chow and sterile water ad libitum. In week one of the experiment, H. pylori was administered at 3×10^8 bacteria per mouse per inoculum (100 µl) on two days with one day of break in between. The proof-of-principle treatment was started two weeks after the end of the inoculation week, assuming a stable infection at this time point. The mice were treated in separate groups (8-14 animals per group), as outlined in the results, with compound(s), antibiotic (metronidazole at 14.3 mg/kg/day), a combination of both antibiotic and compound (for concentrations, see Results), or mock-treated once daily over seven consecutive days by intra-gastric gavage. After the treatment week, the mice were kept for another two weeks under normal housing and feeding conditions with sterilized chow and sterile water ad libitum. At the end of the assay period (week seven), the mice were necropsied by cervical dislocation under CO2 anesthesia. The animal experiments were authorized under German federal law by the LAVES (Lower Saxony Government Authority).
# Then, BL2 was further tested for therapeutic efficacy in a mouse model of chronic H. pylori infection (Fig. 5). Six groups of mice (10 mice per group in each of the four infected and/or treated groups, and six mice in both of the control groups) were established in this mouse treatment trial. For the treatment groups, mice were infected in week one (using ca. 3×10^8 bacteria per animal; Methods), and the chronic infection was manifested for two more weeks. The once-daily treatment (intragastric gavage) started in week four on seven consecutive days. For the treatment groups, three H. pylori-infected groups were evaluated in parallel. One dose of treatment was given daily.
# Group one was treated with metronidazole (14.3 mg/kg/day) only, an established anti-H. pylori antibiotic. The antibiotic concentration corresponds to concentrations routinely used in human treatment. Group two was treated with metronidazole (dosed at 14.3 mg/kg/day) and BL2 (10 mg/kg/day) in combination, and group three received BL2 (10 mg/kg/day) only. In addition, one infected and mock-treated group was kept as positive control, and two mock-infected groups were set aside, one for administering BL2 only (10 mg/kg/day; microbiota compound control) and one which was mock-infected and mock-treated (microbiota null control).
# The read-out of successful treatment was the reduction of colony-forming units (cfus) of bacteria in infected and treated mice, over infected, non-treated, mice, at the end of the experiment. […] All mice in the infected positive control group were colonized (both cfu counts and PCR-positive), although the cfu counts in three positive animals were rather low.
# [1] = solubility observed when preparing doses for MTD testing; assay type: physicochemical; settings: dosing preparations for MTD testing
# Experimental: The active compounds BL1 and BL2, which were chosen to be tested in a preclinical model, were initially tested for toxicity in the mouse model by […] (MTD) testing. The MTD testing (MTD Tox56000 protocol, Eurofins Panlabs) was performed according to international standards, as will be briefly outlined in the following: Three mice were dosed with the compounds at each intended dose. BL1 active compound was prepared in a suitable stock concentration in 5% DMSO, or 5% DMSO, 10% Solutol, 85% PBS (for the 40 and 60 mg/kg/day), and dosed at 10, 30, 40, or 60 mg/kg/day by intraperitoneal injection (125 µl for each dose). BL2 active compound was dosed orally, at 10 mg/kg/day, 30 mg/kg/day, or 60 mg/kg/day, diluted in 5% DMSO, 2.5% carboxy-methyl-cellulose (CMC), in PBS, also at 125 µl per dose per animal. The dosing in each case started with the lowest dose in the three animals, followed by observation for up to 72 h. Subsequently, the next higher dose was administered to a different set of three mice, etc.. Both compounds to be used subsequently for the in vivo therapeutic administration were verified to be non-toxic to mice below an administered dose of 40 mg/kg per day.
# [2] = BL2 10 mg/kg/day, once daily, 7 days, versus infected control
smiles,measurement,setting,value
Cn1c(CSC(=N)N)c(Cl)c(=O)n1-c1ccccc1 [Active 2],reduction of colony-forming units (cfus) / bacterial loads in stomach,"H. pylori; BL2 10 mg/kg/day, once daily, 7 days, versus infected control, listed as BL2",therapeutically effective; also recorded: significant activity in vivo; also recorded: significant therapeutic activity; also recorded: significantly effective in reducing bacterial loads
same,reduction of colony-forming units (cfus) / bacterial loads in stomach,"H. pylori; BL2 10 mg/kg/day, once daily, 7 days, versus infected control, listed as active 2/BL2",therapeutically active
same,cfu counts in the antrum,H. pylori; [2],statistically significant reduction of cfu counts in the antrum
same,cfus in the corpus,H. pylori; [2],trend towards reduced cfus
same,gene-specific (cagL) PCR signal in stomach homogenates,"H. pylori; two weeks post-treatment, listed as BL2",strong reduction of gene-specific PCR signal; also recorded: below detection levels
same,solubility,[1],very well soluble

# Source: patent EP3892734B1, “SCREENING METHODS AND THERAPEUTIC APPLICATIONS BASED ON BACTERIAL MOTILITY INHIBITION” (Ludwig-Maximilians-Universität München, priority 2020, dated 2021)
